Experimental data as given in patent US9873693B2 (Sunesis Pharmaceuticals, Inc., priority 2006, dated 2018).

Experiments:
dephosphorylated PDK1 = dephosphorylated PDK1 (Homo sapiens (Human), UniProt O15530); assay: PDK1 kinase assay (coupled PDK1/AKT/FAM-crosstide, IMAP); format: biochemical; conditions: 25 nM un-phosphorylated PDK1, 24 μM ATP; read-out: Inhibition of dephospo-PDK1 in vitro IC50
Method: A PDK1 kinase assay was performed as follows. PDK1 (amino acids 51-360) and AKT2 (amino acids 140-467 fused to PIFtide, amino acids […]) were expressed as N-terminally tagged GST fusion proteins in insect cells and purified to greater than 90% homogeneity. PDK1 protein was divided into two fractions, one of which was subsequently dephosphorylated. To generate dephosphorylated PDK1, the PDK1 was reacted with GST-tagged lambda-phosphatase in vitro. GST was subsequently cleaved proteolytically for both phosphorylated and dephosphorylated PDK1. Protein preparations were run on glutathione Sepharose columns to remove GST and GST-tagged lambda-phosphatase, if present. Phosphorylated PDK1 and dephosphorylated PDK1 were verified by mass-spectrometry. Enzyme activity was determined in a coupled PDK1/AKT/FAM-crosstide assay using either phosphorylated or unphosphorylated PDK1 and phosphorylation of FAM-crosstide was determined by standard IMAP protocol (Molecular Devices). For inhibition studies, compounds were titrated 3-fold in DMSO and diluted 40-fold into assay buffer (10 mM Tris HCl pH7.2; 10 mM MgCl2; 0.01% Triton X-100; 1 mM DTT) containing PDK1, AKT2, and FAM-crosstide. (final concentrations: 25 nM un-phosphorylated PDK1 or 0.5 nM phosphorylated PDK1, 30 nM unphosphorylated AKT2, and 100 nM crosstide substrate). The kinase reaction was initiated by adding ATP to a final concentration of 24 μM for both forms of PDK1 and incubated at 25° C. for 30 min. To detect assay product, the kinase reaction was combined with Progressive Binding Solution (1:600 Progressive Binding Reagent, 50% Buffer A, 50% Buffer B, Molecular Devices) in a 1:3 ratio. The mixture was incubated for 2 hours at 25° C. and the plate was scanned on an Analyst AD with excitation at 485 nm and emission at 530 nm. The fluorescence polarization value “P” is defined by the equation below. The value “mP” is generated by multiplying the P value for each reaction well by a factor of 1000. The value “ΔmP” for each well is the mP value for that well minus the mP value for the average negative control. P=(Fpar−Fperp)/(Fpar+Fperp) Eq.:
Where “par” is fluorescence intensity parallel to the excitation plane; and “perp” is fluorescence intensity perpendicular to the excitation plane. ΔmP values were plotted as a function of compound concentration and the data were analyzed with a 4-parameter fit using GraphPad Prism software.

phosphorylated PDK1 = phosphorylated PDK1 (Homo sapiens (Human), UniProt O15530); assay: as above; format: biochemical; conditions: 0.5 nM phosphorylated PDK1, 24 μM ATP; read-out: Inhibition of phospo-PDK1 in vitro IC50
Chain of phosphorylated PDK1 (O15530 51-360): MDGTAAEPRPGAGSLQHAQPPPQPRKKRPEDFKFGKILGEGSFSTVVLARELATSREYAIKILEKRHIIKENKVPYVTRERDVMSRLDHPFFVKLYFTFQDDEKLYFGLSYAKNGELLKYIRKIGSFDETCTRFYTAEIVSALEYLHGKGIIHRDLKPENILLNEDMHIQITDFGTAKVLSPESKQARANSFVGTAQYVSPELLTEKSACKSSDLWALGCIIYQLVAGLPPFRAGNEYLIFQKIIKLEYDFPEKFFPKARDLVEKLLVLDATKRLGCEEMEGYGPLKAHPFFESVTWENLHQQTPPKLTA

phospho-akt (Thr308) = phospho-akt (Thr308) MSD ELISA in PC-3 cells; format: cell-based; conditions: Homo sapiens, PC-3, 2 h, PC-3 cells, 2 hours, no serum; read-out: Inhibition of P308 Akt in cells using MSD EC50
How it was run: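 Read-out is MSD electrochemiluminescence after lysate capture overnight at 4 degrees and 1 hr RT detection-antibody step. Before lysis, overnight-plated PC-3 cells received three-fold serial dilutions of inhibitor in serum-free medium, with DMSO-only high controls.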

Chain of dephosphorylated PDK1 (O15530 51-360): as above

Structure (SMILES)	IC50 (dephosphorylated PDK1)	IC50 (phosphorylated PDK1)	EC50 (phospho-akt (Thr308))
O=C(N[C@H](COc1ccc2[nH]c(=O)[nH]c2c1)C1CCOC1)c1cccn(Cc2cc(F)c(F)c(F)c2)c1=O (stereo partly shown) [Cpd 185]	< 500 nM	< 500 nM	–
COc1ccnc(NCCCCCCNC(=O)c2cccn(Cc3cccc(F)c3)c2=O)n1 [Cpd 261]	< 500 nM	500 to 10000 nM	–
Cc1sc(CNC(=O)c2cccn(Cc3ccc(F)c(F)c3)c2=O)nc1-c1c[nH]c2ncccc12 [Cpd 275]	< 500 nM	500 to 10000 nM	–
NC(=O)Nc1ccc(OCCNC(=O)c2cccn(Cc3ccc(F)c(F)c3)c2=O)cc1 [Cpd 122]	< 500 nM	500 to 10000 nM	–
O=C(NCc1cccc(-c2ccc3nonc3c2)c1)c1cccn(Cc2ccc(F)c(F)c2)c1=O [Cpd 219]	500 to 10000 nM	> 10000 nM	–
CNC(=O)C[C@@H](NC(=O)c1cccn(Cc2ccc(F)c(F)c2)c1=O)c1ncc(-c2c[nH]c3ncccc23)o1 [Cpd 248]	< 500 nM	–	–
C[C@@H](NC(=O)c1cccn(Cc2ccc(F)c(F)c2)c1=O)c1nc(-c2c[nH]c3ncccc23)cs1 [Cpd 114]	< 500 nM	< 500 nM	–
COc1ccnc(NCCCCCNC(=O)c2cccn(C(C)c3ccc(Cl)cc3)c2=O)n1 (stereo not shown) [Cpd 254]	< 500 nM	500 to 10000 nM	–
COc1ccnc(NCCCCCNC(=O)c2cccn(Cc3cccc(Cl)c3)c2=O)n1 [Cpd 101]	500 to 10000 nM	500 to 10000 nM	–
O=C(NCc1cccc(-c2cc[nH]c(=O)c2)c1)c1cccn(Cc2ccc(F)c(F)c2)c1=O [Cpd 224]	500 to 10000 nM	–	–
Cc1nc(CNC(=O)c2cccn(Cc3ccc(F)c(F)c3)c2=O)sc1-c1c[nH]c2ncccc12 [Cpd 115]	< 500 nM	500 to 10000 nM	–
COc1ccnc(NCCCCCNC(=O)c2cccn(Cc3cc(F)c(F)c(F)c3)c2=O)n1 [Cpd 267]	< 500 nM	–	–
O=C(NCc1cccc(-c2cccc3[nH]ncc23)c1)c1cccn(Cc2ccc(F)c(F)c2)c1=O [Cpd 329]	500 to 10000 nM	–	> 5000 nM
O=C(NCCSc1ccc2[nH]c(=O)[nH]c2c1)c1cccn(Cc2ccc(F)c(F)c2)c1=O [Cpd 117]	500 to 10000 nM	500 to 10000 nM	–
O=C(Nc1cccc(-c2ccc3[nH]c(=O)[nH]c3c2)c1)c1cccn(Cc2ccc(F)c(F)c2)c1=O [Cpd 162]	< 500 nM	500 to 10000 nM	–
O=C(NCc1nnc(-c2c[nH]c3ncccc23)s1)c1cccn(Cc2ccc(F)c(F)c2)c1=O [Cpd 124]	< 500 nM	< 500 nM	–
CNC(=O)[C@H](COc1ccc2[nH]c(=O)[nH]c2c1)NC(=O)c1cccn(Cc2cc(F)c(F)c(F)c2)c1=O [Cpd 157]	< 500 nM	< 500 nM	–
O=C(NCCCCCc1c[nH]c2ncccc12)c1cccn(Cc2cccc(Cl)c2)c1=O [Cpd 108]	500 to 10000 nM	500 to 10000 nM	–
O=C(NCc1cc(-c2c[nH]c3ncccc23)[nH]n1)c1cccn(Cc2ccc(F)c(F)c2)c1=O [Cpd 142]	< 500 nM	< 500 nM	–
COc1ccnc(NCC/C=C/CCNC(=O)c2cccn(Cc3cccc(Cl)c3)c2=O)n1 [Cpd 103, 1-(3,4-Difluoro-benzyl)-2-oxo-1,2-dihydro-pyridine-3-carboxylic acid 3-(4-amino-1H-pyrazolo[3,4-d]pyrimidin-3-yl)-benzylamides]	< 500 nM	500 to 10000 nM	–
COc1ccnc(NCCCCCNC(=O)c2cc(Br)cn(Cc3cccc(F)c3)c2=O)n1 [Cpd 253]	< 500 nM	500 to 10000 nM	–
O=C(NCCCCCNc1nc2ccccc2o1)c1cccn(Cc2cccc(Cl)c2)c1=O [Cpd 100]	500 to 10000 nM	> 10000 nM	–
O=C(NCc1nc(-c2c[nH]c3ncccc23)cs1)c1cccn(Cc2cccc(Cl)c2)c1=O [Cpd 272]	< 500 nM	< 500 nM	–
COc1ccnc(NCCC#CCCNC(=O)c2cc(F)cn(Cc3cccc(F)c3)c2=O)n1 [Cpd 258]	< 500 nM	< 500 nM	–
O=C(Nc1cccn(Cc2ccc(F)c(F)c2)c1=O)c1cccc(-c2c[nH]c3ncccc23)c1 [Cpd 288]	< 500 nM	–	–
